From a melting point compilation (Tetko et al.; mined from patent text by program, amines drawn as free bases though some values may be those of a salt)

Point of comparison: `COc1cc(/C=C(\C#N)c2c[nH]c3ccc(OC)cc23)cc(OC)c1`, melting point 141 °C. Against it:
- CCOc1ccccc1N1CCN(Cc2nc3ccccc3[nH]2)CC1 — lower, 95 to 100 °C
- O=C(NNS(=O)(=O)c1ccccc1)c1ccc2ncccc2c1 — higher, 211 to 214 °C
- Cn1nc2c(-c3ccc(Cl)cc3Cl)cccc2c1CCc1ncn[nH]1 — lower, 92 to 116 °C
- CCC(CC)NC(=O)CCCOc1ccc2nc3[nH]c(=O)[nH]c3cc2c1 — higher, 312 to 314 °C
- COc1ccc2c(c1)c(CN(O)C(C)=O)c(C)n2C(=O)c1ccc(Cl)cc1 — higher, 160 to 161 °C
- CC(C)(C)c1cc(C(=O)CI)cc(C(C)(C)C)c1O — lower, 88 to 89 °C
- CC(=O)Nc1ccc2c(c1)[C@@H](O)[C@H](Br)C(C)(C)O2 (relative stereo) — higher, 170 °C
- CC(=O)OCC1Cc2c(C3=C(c4cn(C)c5ccccc45)C(=O)OC3=O)c3ccccc3n2C1 (stereo not drawn) — higher, 208 to 211 °C
- Cn1c(=O)c2c(Br)cccc2n2cnc(-c3nc(C4CC4)no3)c12 — higher, 246 to 247 °C
- COC(=O)Cn1c(C(=O)Nc2nc(-c3cc(OC)c(Cl)cc3OC)c(CCC3CCCCC3)s2)cc2cc(C)cc(C)c21 — higher, 193 to 195 °C
- CCOCc1nc2c(N)nc3ccccc3c2n1C[C@H]1COC(C)(C)O1 — lower, 130 to 131 °C
- N#Cc1nn(-c2c(Cl)cc(C(F)(F)F)cc2Cl)cc1C=O — higher, 168 °C
- CN=Cc1ccc2cc(OC)ccc2c1 — lower, 109 to 110 °C
- O=C1c2c(-c3ccccc3)noc2CCC1CCCN1CCC(O)(c2ccc(Cl)cc2)CC1 (stereo not drawn) — higher, 147 to 148 °C
- COc1cc(N)c(Cl)cc1C(=O)NCC1CCN(CCCCC(=O)c2cn(C)c3ccccc23)CC1 — lower, 87 to 89 °C
- CCOC(=O)c1c(Cn2cncn2)nc2sc3c(c2c1-c1ccc(OC)c(OC)c1)CCCN3C(=O)OCc1ccccc1 — higher, 184 to 185 °C
- CN1C(=O)C2(COc3cc4c(cc32)OCCO4)c2c(-c3ccoc3)cccc21 (stereo not drawn) — higher, 178 to 180 °C
- O=C(NC(=O)c1c(F)cccc1F)Nc1ccc(Cl)cn1 — higher, 226 to 229 °C
- Cc1ccc(Nc2c(C)cc(Cl)cc2Cl)c(CC(=O)O)c1 — not separable, 137 to 141 °C
- Cc1ccc(S(=O)(=O)N2CCCC2C(=O)NC(Cc2ccc(OCC(=O)OCc3ccccc3)cc2)C(=O)O)cc1 (stereo not drawn) — lower, 79 to 81 °C
- Cc1nc2c3c(ccc2n1C)[C@@H](OCCF)[C@H](O)[C@@H](c1ccccc1)O3 — higher, 226 °C
- CC(=O)CN1CCc2c(c(=O)oc3cc(C)c(C)cc23)C1 — lower, 136 to 138 °C
- Cc1c(N2CCN(C=O)C(C)C2)c(F)cc2c(=O)c(C(=O)O)cn(C3CC3)c12 (stereo not drawn) — higher, 236 to 239 °C
- CN1CCN(c2cnc3cc(Cl)ccc3n2)CC1 — higher, 151 to 152 °C
- N#Cc1cc2c(=O)c3ccccc3ccn2c1 — higher, 197 °C
- CCOC(=O)c1cccc(/C=C/C(=O)c2cc(O)ccc2[N+](=O)[O-])c1 — higher, 157 to 159 °C
- COc1ccc(C(C)C)c(NC(=O)CN2CCN(CCCSc3nc4ccccc4o3)CC2)c1C(C)C — lower, 105 to 107 °C
- Nc1ccccc1N1CCN(C=O)CC1 — lower, 129 to 133 °C
- COC(=O)c1ccc(CBr)c(SC(=O)c2ccc(C(C)(C)C)cc2)c1 — higher, 152 °C
- CCc1cc([N+](=O)[O-])c(NC(CC)COC)c([N+](=O)[O-])c1COC (stereo not drawn) — lower, 54 to 55 °C
- COc1ccc(N(S(=O)(=O)c2ccc(C)cc2)S(=O)(=O)c2ccc(C)cc2)c([N+](=O)[O-])c1 — higher, 180 to 182 °C
- COc1cc2ncc(C#N)c(Nc3ccc4[nH]ncc4c3)c2cc1OC — higher, 290 to 295 °C
- CC(=O)N[C@H]1CC[C@H](CCN2CCN(c3nccc4ccoc34)CC2)CC1 — higher, 157 °C
- CC1(C)CC(NC(=O)c2ccc(-c3cc4cc(Cl)c(Cl)cc4[nH]3)c(O)c2)CC(C)(C)N1 — higher, > 270 °C
- CCOC(=O)c1cc(NC(=O)NCC(=O)N2[C@@H](C(=O)OC(C)(C)C)CC[C@H]2c2ccccc2)ccc1O (racemic) — higher, 150 °C
- Cc1cc2c(Cl)c(C#N)cnc2s1 — lower, 101 to 102 °C
- CC(C)(C)OC(=O)NOCC(=O)NNC(=O)c1cc(S(=O)(=O)O)cc(OCc2ccccc2)c1OCc1ccccc1 — lower, 103 to 105 °C
- CC(=O)NC[C@H]1CN(c2ccc(N3CCC(=C(C#N)CCO)CC3)c(F)c2)C(=O)O1 — higher, 192 to 194 °C
- CCc1c(OC)c(C)c(OC)c2c1C(=O)N(CSc1nnnn1-c1ccccc1)S2(=O)=O — lower, 44 to 46 °C
- CC(=O)OC1C(C)OC(n2cc(F)c(=O)[nH]c2=O)C1OC(C)=O (stereo not drawn) — higher, 176 to 177 °C
- CCCCCCCCCCCCCCCCCCOc1cc(N(CC(=O)OC)CC(=O)OC)cc([N+](=O)[O-])c1 — lower, 68 to 74 °C
- COc1cc(CC2SC(N3CCCC3)=NC2=O)cc(-c2ccc(O)c(C3(C)CCCCC3)c2)c1 (stereo not drawn) — lower, 88 to 91 °C
- CC1(C)CN(C2CCN(c3ccc(F)c(Cl)c3)C2=O)C1=O (stereo not drawn) — lower, 120 to 121 °C
- COc1ccc2c(c1)c(-c1cc3c(OC)ncnc3[nH]1)cn2C — higher, 184 °C
- Cc1cc(Br)ccc1N=CN(C)SN(C)C=Nc1ccc(Br)cc1C — lower, 127 to 129 °C
- O=C(Cc1ccc(-c2ccc(C(CC3CCOCC3)c3ccc(S(=O)(=O)C4CC4)cc3)[nH]2)nc1)N1CCOCC1 (stereo not drawn) — higher, 202 to 203 °C
- O=C(c1cc(C(F)(F)F)ccc1Cl)c1cc(C(F)(F)F)ccc1Cl — lower, 70 to 72 °C
- CCOC(=O)C1=C(C)Nc2nc(N3CCOCC3)nc(N3CCOCC3)c2C1c1ccsc1 (stereo not drawn) — higher, 208 °C
- O=C(O)Cc1cccc2c(=O)cc(-c3cccc(F)c3)oc12 — higher, 208 to 211 °C
- NS(=O)(=O)c1cc2c(cc1Cl)NC(C1CCCCC1)NS2(=O)=O (stereo not drawn) — higher, 274 to 276 °C
- O=C(O)c1coc(-c2ccc(Cl)c(C(=O)NCC34CC5CC(CC(C5)C3)C4)c2)n1 — higher, 254 to 257 °C
- CCCCc1nc2cccc(C(=O)OC)c2n1Cc1ccc(-c2c(C#N)cnc3ccccc23)cc1 — lower, 103 to 104 °C
- CN(C)c1ccc(N=Nc2ccccc2C(=O)NCCN)cc1 — lower, 119 to 124 °C
- COC(=O)c1ccccc1NC(=O)CN1CCNCC1 — lower, 94 to 96 °C
- O=C(O)C(=O)c1ccc(OCCCCCOc2ccccc2)cc1 — lower, 69 to 70 °C
- Nc1ccc(-c2ccc(-c3ccc(N)cc3Cl)o2)c(Cl)c1 — higher, 192 to 193 °C
- ClC(Cl)(Cl)SNc1nc(C(Cl)(Cl)Cl)ns1 — higher, 180 °C
- O=C(O)c1cn(C2CC2)c2c(F)c(N3CCNC(CF)C3)c(F)c(F)c2c1=O (stereo not drawn) — higher, 219 to 220 °C
- CC(C)n1nc(-c2c(-c3ccccc3)nn3ccc(OCCCN(C)C)cc23)ccc1=O — lower, 125 to 126 °C
- COc1ccc(CSC2(C(=O)O)CCCCC2)cc1 — lower, 98 °C
- Cn1ncc(NCCN(CCOc2cccc3c2OCCO3)Cc2ccccc2)c(Cl)c1=O — lower, 78 to 80 °C
- N#Cc1ccc(NCc2ccccc2)nc1 — lower, 133 to 134 °C
- O=c1[nH]c2cc(Cl)cc(Cl)c2c(=O)n1Cc1cccc(I)c1 — higher, 299 to 302 °C
- CC(C)CCCC(C)C1CC=C2C3=C(CCC21C)C1(C)CCC(F)CC1CC3 (stereo not drawn) — lower, 98.6 °C
- O[C@H]1CC[C@H](c2ccc(Br)cc2)CC1 — lower, 110 to 111 °C
- COCOc1c(-c2ccccc2)sc2cnccc12 — lower, 55 to 56 °C
- CCCc1nn(C)c2c(=O)[nH]c(-c3cc(S(C)(=O)=O)ccc3OCC)nc12 — higher, 235 to 236 °C
